The source of these data is patent US12692247B2, “Phenyl- and pyridopyrazole derivatives as inhibitors of DDR1” (Redx Pharma Limited, priority 2021, dated 2026).

Experiment [1] has as its target T1, Recombinant human DDR2 (Homo sapiens, UniProt Q16832).
T1 construct: DDR2 (1.75 nM; aa427-855 containing a GST tag)
T1 sequence (Q16832 427-855): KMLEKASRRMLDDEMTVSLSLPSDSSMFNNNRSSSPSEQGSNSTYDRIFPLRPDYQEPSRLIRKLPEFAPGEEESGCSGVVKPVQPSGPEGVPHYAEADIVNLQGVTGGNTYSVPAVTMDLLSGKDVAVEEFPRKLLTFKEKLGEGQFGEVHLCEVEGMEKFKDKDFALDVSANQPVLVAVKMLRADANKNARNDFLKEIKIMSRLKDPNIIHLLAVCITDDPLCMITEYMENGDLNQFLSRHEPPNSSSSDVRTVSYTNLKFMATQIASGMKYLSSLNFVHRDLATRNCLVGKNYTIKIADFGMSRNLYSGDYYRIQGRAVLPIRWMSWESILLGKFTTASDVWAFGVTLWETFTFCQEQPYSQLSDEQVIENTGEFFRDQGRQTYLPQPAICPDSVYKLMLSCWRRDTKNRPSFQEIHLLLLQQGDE
The experiment in a line: LanthaScreen Eu Kinase Binding Assay, DDR2. To be noted: recombinant human DDR2 (1.75 nM; aa427-855, GST tag), Kinase Tracer 178 10 nM, time-resolved fluorescence, at least two independent replicates; read-out: DDR2 pIC50 (converted). As to the method: (§1) DDR1 and DDR2 Biochemical Assay Method
(§2) The capacity of compounds to bind to DDR1 and DDR2 was quantified using a LanthaScreen Eu Kinase Binding Assay. Recombinant human DDR1 (2.5 nM; aa440-876 containing a GST tag) and DDR2 (1.75 nM; aa427-855 containing a GST tag) were diluted in assay buffer (50 mM HEPES pH7.3, 10 mM MgCl2, 1 mM EGTA and 0.01% Tween) with various concentrations of compound in a 384-well plate and a volume of 5 uL. After a 30-minute incubation at room temperature, 2.5 uL of Eu-anti GST antibody (diluted to 1 nM in assay buffer) plus Kinase Tracer 178 (diluted in assay buffer to 5 nM for DDR1 and 10 nM for DDR2) were added to the plate. Following 60-minute incubation at room temperature, time-resolved fluorescence was measured on a BMG Labtech PHERAstar plate reader. DMSO (1%) and reference compound (1 μM) were used to generate the Max and Min assay signals, respectively. Data was analysed using a four-parameter logistic model to calculate IC50 values, with at least two independent replicates were performed for each compound.

The target of experiment [2] is T2, Recombinant human DDR1 (Homo sapiens, UniProt Q08345).
T2 construct: Recombinant human DDR1 (2.5 nM; aa440-876 containing a GST tag)
T2 sequence (Q08345 440-876 isoform Q08345-2): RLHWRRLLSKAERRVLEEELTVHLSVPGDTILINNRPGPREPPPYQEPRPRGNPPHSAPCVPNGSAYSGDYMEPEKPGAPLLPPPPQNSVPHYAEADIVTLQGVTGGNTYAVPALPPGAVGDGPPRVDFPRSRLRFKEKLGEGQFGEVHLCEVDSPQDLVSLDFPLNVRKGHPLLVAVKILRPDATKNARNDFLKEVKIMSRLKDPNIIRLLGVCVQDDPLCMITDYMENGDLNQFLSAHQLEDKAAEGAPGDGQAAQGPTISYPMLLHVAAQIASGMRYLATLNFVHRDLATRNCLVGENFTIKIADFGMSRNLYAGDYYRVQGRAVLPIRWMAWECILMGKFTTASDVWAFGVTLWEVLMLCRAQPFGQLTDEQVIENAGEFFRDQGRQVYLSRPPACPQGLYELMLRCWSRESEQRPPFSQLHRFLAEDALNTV
The experiment in a line: LanthaScreen Eu Kinase Binding Assay, DDR1. The following applies: recombinant human DDR1 (2.5 nM; aa440-876, GST tag), Kinase Tracer 178 5 nM, time-resolved fluorescence, at least two independent replicates; read-out: DDR1 pIC50 (converted). As to the method:
as §1, §2
On the technique in general: In TR-FRET formats the signal depends on donor and acceptor labels being close together.

Regarding `O=C(Cn1ccc2cccc(Nc3ccc4[nH]ncc4c3)c2c1=O)NCC(F)(F)F` [Example 1, 2-[8-(1H-indazol-5-ylamino)-1-oxo-2-isoquinolyl]-N-(2,2,2-trifluoroethyl)acetamide], the IC50 in experiment [1] was not below 1000 nM; in experiment [2] it was 10 to 100 nM.
In the same order, the values of `O=C(Cn1ccc2cccc(Nc3ccc4cn[nH]c4c3)c2c1=O)NCC(F)(F)F` [Example 2] are not below 1000 nM and 10 to 100 nM.
In the same order, the values of `Cn1ncc2cc(Nc3cccc4ccn(CC(=O)NCC(F)(F)F)c(=O)c34)ccc21` [Example 3, 2-[8-[(1-methylindazol-5-yl)amino]-1-oxo-2-isoquinolyl]-N-(2,2,2-trifluoroethyl)acetamide] are 100 to 1000 nM and 10 to 100 nM.
The matching figures for `Cc1ccc(Nc2ccc3c(cnn3C)c2)c2c(=O)n(CC(=O)NCC(F)(F)F)ccc12` [Example 8, 2-[5-methyl-8-[(1-methylindazol-5-yl)amino]-1-oxo-2-isoquinolyl]-N-(2,2,2-trifluoroethyl)acetamide]: not below 1000 nM and not below 1000 nM.
In the case of `CC(C)CNC(=O)Cn1ccc2cccc(Nc3ccc4c(cnn4C)c3)c2c1=O` [Example 9, N-isobutyl-2-[8-[(1-methylindazol-5-yl)amino]-1-oxo-2-isoquinolyl]acetamide], the results for the IC50 in experiment [1] and in experiment [2] were 100 to 1000 nM and 10 to 100 nM, respectively.
In the same order, the values of `Cn1ncc2cc(Nc3cccc4ccn(CC(=O)NCC(F)F)c(=O)c34)ccc21` [Example 10] are 100 to 1000 nM and 10 to 100 nM.
The matching figures for `Cn1ncc2cc(Nc3cccc4ccn(CC(=O)N5CCOCC5)c(=O)c34)ccc21` [Example 11]: 100 to 1000 nM and 100 to 1000 nM.
The matching figures for `CC(NC(=O)Cn1ccc2cccc(Nc3ccc4c(cnn4C)c3)c2c1=O)C(F)(F)F` (stereo not drawn) [Example 12, 2-[8-[(1-methylindazol-5-y)amino]-1-oxo-2-isoquinolyl]-N-(2,2,2-trifluoro-1-methyl-ethyl)acetamide]: 10 to 100 nM and 10 to 100 nM.
Take `CN1CCN(C(=O)Cn2ccc3cccc(Nc4ccc5c(cnn5C)c4)c3c2=O)CC1` [Example 13, 8-[(1-methylindazol-5-yl)amino]-2-[2-(4-methylpiperazin-1-yl)-2-oxo-ethyl]isoquinolin-1-one]: the IC50 in experiment [1] and in experiment [2] was not below 1000 nM in each case.
In the case of `CCNC(=O)Cn1ccc2cccc(Nc3ccc4c(cnn4C)c3)c2c1=O` [Example 14, N-ethyl-2-[8-[(1-methylindazol-5-yl)amino]-1-oxo-2-isoquinolyl]acetamide], the results for the IC50 in experiment [1] and in experiment [2] were not below 1000 nM and 100 to 1000 nM, respectively.
As to `Cn1ncc2cc(Nc3cccc4ccn(CC(=O)NC5CCOCC5)c(=O)c34)ccc21` [Example 15, 2-[8-[(1-methylindazol-5-yl)amino]-1-oxo-2-isoquinolyl]-N-tetrahydropyran-4-yl-acetamide], the IC50 in experiment [1] was not below 1000 nM; in experiment [2], 100 to 1000 nM.
In the same order, the values of `Cn1ncc2cc(Nc3cccc4ccn(CC(=O)NCC5CC5)c(=O)c34)ccc21` [Example 16] are 100 to 1000 nM and 10 to 100 nM.
The matching figures for `Cn1ncc2cc(Nc3cccc4ccn(CC(=O)NC5CC5)c(=O)c34)ccc21` [Example 17, N-cyclopropyl-2-[8-[(1-methylindazol-5-yl)amino]-1-oxo-2-isoquinolyl]acetamide]: not below 1000 nM and 100 to 1000 nM.
In the same order, the values of `CN1CCC(NC(=O)Cn2ccc3cccc(Nc4ccc5c(cnn5C)c4)c3c2=O)CC1` [Example 18, 2-[8-[(1-methylindazol-5-y)amino]-1-oxo-2-isoquinolyl]-N-(1-methyl-4-piperidyl)acetamide] are not below 1000 nM and not below 1000 nM.
As to `C[C@H](NC(=O)Cn1ccc2cccc(Nc3ccc4c(cnn4C)c3)c2c1=O)C(F)(F)F` [Example 19, 2-[8-[(1-methylindazol-5-yl)amino]-1-oxo-2-isoquinolyl]-N-[(1S)-2,2,2-trifluoro-1-methyl-ethyl]acetamide], the results for the IC50 in experiment [1] and in experiment [2] were 10 to 100 nM and less than 10 nM, respectively.
